# Target: T1, FUCA1 (Homo sapiens, UniProt P04066)
# T1 sequence (P04066 32-466): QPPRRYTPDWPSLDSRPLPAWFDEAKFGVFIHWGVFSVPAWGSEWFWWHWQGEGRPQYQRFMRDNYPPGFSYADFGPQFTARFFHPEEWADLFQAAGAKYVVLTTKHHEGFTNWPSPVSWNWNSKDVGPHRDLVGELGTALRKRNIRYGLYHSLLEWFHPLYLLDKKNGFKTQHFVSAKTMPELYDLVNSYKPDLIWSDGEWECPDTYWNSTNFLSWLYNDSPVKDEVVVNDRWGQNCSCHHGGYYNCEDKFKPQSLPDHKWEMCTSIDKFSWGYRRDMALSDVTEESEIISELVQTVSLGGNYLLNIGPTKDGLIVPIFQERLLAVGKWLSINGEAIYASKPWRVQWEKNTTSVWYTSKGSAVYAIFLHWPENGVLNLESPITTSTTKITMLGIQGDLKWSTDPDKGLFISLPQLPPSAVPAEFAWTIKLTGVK
# Experiment: Fluorescent labeling kinetics, time course on SDS-PAGE
# Assay type: binding
# Design: expressed in transfected cells; host or cells: COS-7
# Conditions: 10 nM probe, stoichiometric rhFUCA1, 4 °C
# Source text: This rapid reaction with both 1 and 2 also precluded a classic determination of kinetic constants following a time-dependent decrease in detectable 4-methylumbelliferone (ESI Fig. S5b ^†).
# Fig. S4. In vitro pH profile of recombinant FUCA1. A) In vitro labeling of COS-7 cell lysate containing over-expressed human FUCA1 at various pH with ABP 1. B) Relative in vitro labeling of FUCA1 with ABP 1 (closed squares) compared to relative enzymatic activity towards artificial 4-methylumbelliferyl-α-L-fucopyranoside substrate (open circles) at various pH. Data average of n = 3 experiments, ± standard deviation.
# Fig. S5. In vitro inhibition kinetics of ABPs 1 and 2 towards recombinant human FUCA1. A) Stoichiometric in situ labeling of COS-7 lysate containing over-expressed human FUCA1 with 10 nM ABP 1 at 4°C and 37°C. B) Plots of Kobserved against the concentration of ABP 1 and 2. Rates determined through direct kinetic measurements of liberated 4-methylumbelliferone from 4-methylumbelliferyl-α-L-fucopyranoside substrate whilst in the presence of varying concentrations of ABP 1 and 2. […]
compound,measurement,value
CC1=CC(C)=[N+]2C1=C(CCCCc1cn(CCCCCCCC(=O)N3[C@@H]4[C@@H](C)[C@@H](O)[C@@H](O)[C@H](O)[C@@H]43)nn1)c1c(C)cc(C)n1[B-]2(F)F [compound 1],completeness of labeling over time,near complete within the first minute

# From article PMC5654414, “In vitro and in vivo comparative and competitive activity-based protein profiling of GH29 α-L-fucosidases” (Chemical Science, 2015)
